Source: patent publication US7235534B2, “Antisense strategy to modulate estrogen receptor response (ER α and/or ER β )” (Institut de Cardiologie de Montreal, priority 2001, dated 2007)

Key:
ERβ [1] = assay: Western blot of ERβ protein expression in PSMC; type: cell-based, porcine; conditions: oligomer 10^−6 mol/L, vs PBS-treated cells
Method: (§1) The efficiency and specificity of our antisense sequences to block the targeted protein expression were evaluated by Western blot analysis. Culture medium of confluent PAEC and PSMC (100-mm tissue culture plate) were rinsed with Dulbecco's modified eagle medium (DMEM; Life Technologies Inc., Carlsbad, Calif.) and trypsinized (trypsine-EDTA; Life Technologies). Cells were resuspended in DMEM containing 5% of fetal bovine serum and antibiotics (penicillin and streptomycin, Sigma, St-Louis, Mo.), and a cell count was obtained with a Coulter counter Z1 (Coulter Electronics, Luton, UK). Cells were seeded at 1×10^6 cells/100-mm tissue culture plate (Becton-Dickinson, Rutherford, N.J.), stimulated for 24 h in DMEM, 5% FBS, and antibiotics with or without antisense oligomers (10^−7, 5×10^−7, 10^−6 mol/L) and starved for 48 h in DMEM, 0.1% FBS, and antibiotics with or without antisense oligomers (10^−7, 5×10^−7, 10^−6 mol/L daily) for G0 synchronization. LipofectAnime (5 μg/ml, Life Technology Inc) was used as a transfection reagent only on PSMC. The cells were then grown to confluence for 16 h in DMEM, 5% FBS, and antibiotics with or without antisense oligomers (10^−7, 5×10^−7, 10^−6 mol/L) and starved for 7 h in DMEM, 0.1% FBS, and antibiotics with or without antisense oligomers (10^−7, 5×10^−7, 10^−6 mol/L) to induce an up-regulation of the ER expression. Culture medium was removed, and cells were rinsed twice with ice-cold DMEM. Total proteins were prepared by the addition of 500 μl of lysis buffer containing phenylmethylsulfonyl fluoride 1 mM (Sigma), leupeptin 10 μg/ml (Sigma), aprotinin 30 μg/mi (Sigma), and NaVO3 1 mM (Sigma). Plates were incubated at 4° C. for 30 min and scraped, and the protein concentration was determined with a Bio-Rad protein kit (Bio-Rad, Hercules, Calif.). Same protein quantity for each cell type were dissolved in Laemmli's buffer, boiled for 5 min in reducing conditions, separated by a 10% gradient SDS-PAGE (Protean II kit; Bio-Rad), and transblotted onto a 0.45-μm polyvinylidene difluoride membranes (Millipore Corp., Bedford, Mass.). […]

ERβ [2] = assay: Western blot of ERβ protein expression in PAEC; type: cell-based, porcine; conditions: oligomer 10^−6 mol/L, vs PBS-treated cells
Method: as §1

ERα [3] = assay: Western blot of ERα protein expression in PSMC; type: cell-based, porcine; conditions: oligomer 10^−6 mol/L, vs PBS-treated cells
Method: as §1

ERα [4] = assay: Western blot of ERα protein expression in PAEC; type: cell-based, porcine; conditions: oligomer 10^−6 mol/L, vs PBS-treated cells
Method: as §1

[5] = system: Porcine aortic endothelial cells (PAEC); assay: Chemotactic assay on PAEC (modified Boyden chamber); type: cell-based; conditions: 5 hrs
Method: (§2) Cell migration was evaluated using a modified Boyden 48-well microchamber kit (NeuroProbe, Cabin John, MD.). Near confluent EC and PSMC were rinsed with DMEM and trypsinized. Cells were resuspended in DMEM, 5% FBS, and antibiotics, and a cell count was obtained. […] ER antagonists were added 5 minutes before 17βE. Cells were harvested by trypsinization and resuspended in DMEM, 1% FBS, and antibiotics at a concentration of 5×10^5 cells/ml. […] The two sections of the system were separated by a porous polycarbonate filter (5-μm pores), pre-treated with a gelatine solution (1.5 mg/ml), and assembled. Five hours post incubation at 37° C., the nonmigrated cells were scraped with a plastic policeman, and the migrated cells were stained using a Quick-Diff solution. The filter was then mounted on a glass slide, and migrated cells were counted using a microscope adapted to a video camera to obtain a computer-digitized image.
(§3) Cell migration was evaluated using a modified Boyden 48-well microchamber kit (NeuroProbe, Cabin John, MD.). Near confluent PAEC and PSMC were rinsed with DMEM and trypsinized. Cells were resuspended in DMEM, 5% FBS, and antibiotics, and a cell count was obtained. PAEC and PSMC were seeded at 2.5×10^5 cells/well of 6-well tissue culture plates; stimulated for 24 hours in DMEM, 5% FBS, and antibiotics with or without antisense oligomers (10^−6 mol/L) and starved for 48 hours in DMEM, 0.1% FBS, and antibiotics with or without antisense oligomers (10^−6 mol/L daily) with or without 17βE (10^−8 mol/L). Cells were harvested by trypsinization and resuspended in DMEM, 1% FBS, and antibiotics at a concentration of 5×10^5 cells/mL. Fifty μL of this cell suspension with or without antisense oligomers (10^−6 mol/L) treated with or without 17βE (10^−8 mol/L) was added in the higher-chamber of the modified Boyden chamber apparatus, and the lower chamber was filled with DMEM, 1% FBS, antibiotics plus the desired concentration of agonist either 17βE (10^−8 mol/L) or platelet-derived growth factor-BB (PDGF-BB). The 2 sections of the system were separated by a porous polycarbonate filter (5-μm pores size), pretreated with a gelatine solution (1.5 mg/mL), and assembled. Five hours postincubation at 37° C., the non-migrated cells were scraped with a plastic policeman, and the migrated cells were stained using a Quick-Diff solution (Shandon Inc). The filter was then mounted on a glass slide, and migrated cells were counted using a microscope adapted to a video camera to obtain a computer-digitized image.

[6] = system: Porcine smooth muscle cells (PSMC); assay: Chemotactic assay on PSMC (modified Boyden chamber); type: cell-based; conditions: 5 hours
Method: as §2, §3

SCR-ERβ: scrambled phosphothioate sequence, negative control: 5′-GAG TGG ACG TGA AGA AGT-3′ (GAGTGGACGTGAAGAAGT; DNA, all phosphorothioate, methylation of C not given here)
inhibition of basal ERβ protein expression (ERβ [1]): no suppressing effect
inhibition of basal ERβ protein expression (ERβ [2]): no suppressing effect

AS2-ERα: antisense oligonucleotide, phosphothioate backbone, targeting porcine ERα mRNA: 5′-GAC GCT TTG GTG TGT AGG-3′ (antisense GACGCTTTGGTGTGTAGG; DNA, all phosphorothioate, methylation of C not given here)
inhibition of basal ERα protein expression (ERα [3]): 89%
inhibition of basal ERα protein expression (ERα [4]): 95%

bFGF: basic fibroblast growth factor, chemotactic agonist for PAEC
induction of PAEC migration as compared to DMEM 1% ([5]; bFGF 1 ng/ml): 46%
induction of PAEC migration as compared to DMEM 1% ([5]; bFGF 5 ng/ml): 124%
induction of PAEC migration as compared to DMEM 1% ([5]; bFGF 10 ng/ml): 114%

AS1-ERα: antisense oligonucleotide, phosphothioate backbone, targeting porcine ERα mRNA: 5′-CTC GTT GGC TTG GAT CTG-3′ (antisense CTCGTTGGCTTGGATCTG; DNA, all phosphorothioate, methylation of C not given here)
inhibition of basal ERα protein expression (ERα [3]): 88%
inhibition of basal ERα protein expression (ERα [4]): 94%

AS1-ERβ: antisense oligonucleotide, phosphothioate backbone, targeting porcine ERβ mRNA: 5′-GTA GGA GAC AGG AGA GTT-3′ (antisense GTAGGAGACAGGAGAGTT; DNA, all phosphorothioate, methylation of C not given here)
inhibition of basal ERβ protein expression (ERβ [1]): 84%
inhibition of basal ERβ protein expression (ERβ [2]): 90%

AS2-ERβ: antisense oligonucleotide, phosphothioate backbone, targeting porcine ERβ mRNA: 5′-GCT AAA GGA GAG AGG TGT-3′ (antisense GCTAAAGGAGAGAGGTGT; DNA, all phosphorothioate, methylation of C not given here)
inhibition of basal ERβ protein expression (ERβ [1]): 92%
inhibition of basal ERβ protein expression (ERβ [2]): 97%

SCR-ERα: scrambled phosphothioate sequence, negative control: 5′-TGT AGC TCG GTT CTG TCG-3′ (TGTAGCTCGGTTCTGTCG; DNA, all phosphorothioate, methylation of C not given here)
inhibition of basal ERα protein expression (ERα [3]): no suppressing effect
inhibition of basal ERα protein expression (ERα [4]): no suppressing effect

B1: PDGF-BB: platelet derived growth factor-BB, agonist in the lower Boyden chamber and MAPK stimulus (protein, UniProt P01127 82-190, looked up)
Platelet-derived growth …: SLGSLTIAEPAMIAECKTRTEVFEISRRLIDRTNANFLVWPPCVEVQRCSGCCNNRNVQCRPTQVQLRPVQVRKIEIVRKKPIFKKATVTLEDHLACKCETVAAARPVT
induction of PSMC migration as compared to DMEM 1% ([6]; PDGF-BB 1 ng/ml): 96%
induction of PSMC migration as compared to DMEM 1% ([6]; PDGF-BB 5 ng/ml): 137%
induction of PSMC migration as compared to DMEM 1% ([6]; PDGF-BB 10 ng/mL, Example 2): 199%
induction of PSMC migration as compared to DMEM 1% ([6]; PDGF-BB 10 ng/ml, Example 1): 202%
